The record followed here is BigSolDB 2.1.

The conditions of the data set: in water.

The structures appear in SMILES notation.

With `CC(C)=CCCC(C)CCO` (stereo not drawn), the solubility (mole fraction) (commonly the moles of solute divided by all moles in the saturated solution) by setting is: (298.15 K) 0.000218; (303.15 K) 0.000187; (308.15 K) 0.000187; (313.15 K) 0.000208; (318.15 K) 0.000249; (323.15 K) 0.000308.
Turning to `Cc1ccc(C)cc1`, the solubility (mole fraction) by setting is: (298.15 K) 2.62e-05; (308.15 K) 3.07e-05; (323.15 K) 3.65e-05.
`CC(C)=CCC/C(C)=C/CO`: the solubility (mole fraction) is, setting by setting: (298.15 K) 0.000103; (303.15 K) 0.000139; (308.15 K) 0.000375; (313.15 K) 0.000643; (318.15 K) 0.000922; (323.15 K) 0.00127.
`C=CCc1ccc(O)c(OC)c1`: the solubility (mole fraction) came out at 0.000228 (298.15 K); 0.00023 (303.15 K); 0.000254 (308.15 K); 0.000254 (313.15 K); 0.000286 (318.15 K); 0.000312 (323.15 K).
As for `Cc1ccccc1`, the solubility (mole fraction) runs as follows: (298.15 K) 0.000113; (308.15 K) 0.000118; (313.15 K) 0.00012; (323.15 K) 0.000126.
Take `Cc1ccc(C(C)C)cc1`: the solubility (mole fraction) came to 4.8e-06 (298.15 K); 6.9e-06 (303.15 K); 9.9e-06 (308.15 K); 1.24e-05 (313.15 K); 1.51e-05 (318.15 K); 1.89e-05 (323.15 K).
With `C=CC(C)(O)CCC=C(C)C` (stereo not drawn), the solubility (mole fraction) by setting is: (298.15 K) 0.000181; (303.15 K) 0.000332; (308.15 K) 0.000472; (313.15 K) 0.000592; (318.15 K) 0.000844; (323.15 K) 0.00111.
`Cc1ccc(C(C)C)cc1O`: the solubility (mole fraction) runs as follows: (298.15 K) 0.000144; (303.15 K) 0.000155; (308.15 K) 0.000164; (313.15 K) 0.000169; (318.15 K) 0.00017; (323.15 K) 0.000172.
